In patent publication US20210163489A1, “PYRAZOLOPYRIMIDINE DERIVATIVES AND THE COMPOSITIONS AND METHODS OF TREATMENT REGARDING THE SAME” (NysnoBio Ireland DAC, priority 2016, published 2021):

Target: T1, Parkin (Homo sapiens, UniProt O60260)
T1 construct: Enzyme 3: Parkin-His tagged 203 μM (10.5 mg/ml)
Experiment: Parkin pUB auto-ubiquitinylation assay (TR-FRET)
Format: biochemical
Conditions: for EC50: activation of pUb activated Parkin, read-out: Auto-ubiq EC50 (μM) [Example 3]
Description: A Parkin pUB Auto-ubiquitinylation Assay is used to evaluate a compound's potency to activate Parkin's ability to Auto-ubiquitinylate itself.
The principle of this assay is that the E3 Ligase Parkin catalyzes the transfer of Ubiquitin to target proteins, but also has the ability to auto-ubiquitinylate itself. The phospho-Ubiquition (pUb) added to the assay alters the Parkin to a state where small molecule activators can enable the Parkin to auto-ubiquitinylate though the E1-E2 cascade reaction. The use of a Eu cryptate Ubiquition and anti 6His-d2 that binds to the His tagged Parkin will give a signal when the Eu cryptate Ubiquition is auto-ubiquitinylate onto the Parkin which can be monitored by TR-FRET.
Similar to the Activity-based probe assay in Example 2, screening for activating compounds can be distinguished from the controls as follows:
100% activation signal=pUb activated Parkin+40 nM control activator in DMSO. 0% activation signal=pUb activated Parkin+DMSO only. Parkin activators can be identified by an increase of the 0% activation signal TR-FRET signal.
• Assay Plate: White 384 well plate (Corning 3572) • Enzyme 1: E1 (Ubiquitin-activating enzyme/UBE1 Boston Biochem E-305) • Enzyme 2: E2 (UBcH7/Ube2L3 Boston Biochem E2-640) • Enzyme 3: Parkin-His tagged 203 μM (10.5 mg/ml) • pUb: Phospho-Ubiquitin (S65) (Boston Biochem U-102) • Eu Cryptate Reagent: Ubiquitin Eu (CisBio 61UBIKLA) • DMSO: DMSO (Sigma-34869-2.5L) • Reaction Buffer: 50 mM HEPES, 50 mM NaCl, 1 mM MgCl2, 0.005% Tween 20, 0.1% • PF-127 (Fisher Scientific 50-310-494), pH 8.5 • Detection Buffer: 50 mM HEPES, 50 mM NaCl, 800 mM KF, 5 mM EDTA, 0.005% • Tween 20, 0.1% PF-127, pH 8.5 • Detection Reagent Z: 13.4 nM Anti-6His-d2 in detection buffer • d2 Reagent: Anti-6His-d2 (CisBio 61HISDLA)
Enzyme Reaction (15 min Pre-Incubation with Parkin, pUb and Activator Only) • Parkin: 196 nM • pUb: 196 nM • DMSO: 1% DMSO • E1: 5 nM • E2: 50 nM • Ubiquitin Eu: 8.8 nM • Reaction time: 120 minutes • Temperature: 22° C. • Total volume: 10 μl reaction
Take 10 μl of Enzyme Reaction above and add 10 μl detection Reagent Z under the following conditions:
Reaction time: 60 minutes
1) Load assay plate wells with 4.9 μl 400.0 nM Parkin, 400 nM pUb in reaction buffer by use of Eppendorf 12-channel pipette. 2) Deliver 0.1 μl 100× activator candidates in DMSO by use of Echo 555 compound dispenser. Highest 100× concentration=100 μm and then twofold dilutions. Add each compound and control in duplicate wells. 3) Spin 1000 rpm, 2 minutes, at room temp. 4) Incubate plate for 15 minutes at room temp. 5) Add 5 μl 10 nM E1, 100 nM E2, 17.6 nM Ubiquitin Eu and 2 mM ATP in Reaction Buffer by use of Eppendorf 12-channel pipette. 6) Spin 1000 rpm, 2 minutes, at room temp. 7) Incubate plate for 120 minutes at room temp. 8) Add 10 μl 13.4 nM anti his d2 in detection buffer by use of Eppendorf 12-channel pipette. 9) Spin 1000 rpm, 2 minutes, at room temp. 10) Incubate plate for 120 minutes at room temp. 11) Read plates on Perkin Elmer Envision instrument with the following parameters:
LANCE dual laser protocol loaded into the Envision® software
Top Mirror: LANCE/DELFIA Duel/Bias (Bar code 446) Emission Filter: APC 665 EM (Bar code 205) 2nd Emission Filter: Europium 615 EM (Bar code 203) Read […] (channel 1) and 615 nm (channel 2) wavelengths on Envision®
Data Analysis: The Data can be read in CSV files. There are two tables in those CSV files, which are the values of 655 nm (channel 1) and 615 nm (channel 2) wavelengths respectively. The data is converted to an HTRF Ratio=(Channel 1/Channel 2)*10,000
The average of all the 0 uM controls (DMSO only)=BKGD (Background—0% activation). Subtract BKGD from each HTRF Ratio value=HTRF-BKGD. The average of all the 100 uM control activator in DMSO controls=Max (100% activation). The following equation is then used to calculate % Activation for each well/candidate as follows: % Activation=(HTRF−BKGD/Max)*100.
XLFIT5 model 205 was applied for the data analysis. […]

T1 sequence (O60260 whole entry, other chains not shown): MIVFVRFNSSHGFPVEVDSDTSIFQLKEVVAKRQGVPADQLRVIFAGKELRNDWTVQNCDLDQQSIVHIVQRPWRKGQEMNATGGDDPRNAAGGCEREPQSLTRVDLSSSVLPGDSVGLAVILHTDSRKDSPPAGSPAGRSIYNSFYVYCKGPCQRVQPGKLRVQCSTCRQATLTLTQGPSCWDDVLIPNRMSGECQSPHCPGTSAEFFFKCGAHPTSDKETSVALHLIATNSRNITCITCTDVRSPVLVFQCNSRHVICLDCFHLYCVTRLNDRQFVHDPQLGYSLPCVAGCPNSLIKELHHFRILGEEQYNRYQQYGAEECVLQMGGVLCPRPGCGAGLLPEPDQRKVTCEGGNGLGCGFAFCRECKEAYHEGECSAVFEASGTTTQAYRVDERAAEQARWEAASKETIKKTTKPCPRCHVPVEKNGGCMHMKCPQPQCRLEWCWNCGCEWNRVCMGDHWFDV

SMILES	EC50 [µM]	Parkin activity in an auto-ubiquitination assay
COc1ccc(Cn2ccc(-c3cnn4c(S)cc(C)nc34)cc2=O)cc1 [Compound B3]	> 40	
Cc1nn2c(O)cc(C(C)(C)C)nc2c1-c1ccc(Cl)cc1 [F]	> 40	
Cc1nn2c(O)c(CC(C)C)cnc2c1-c1ccccc1 [Compound I3]	> 40	
Cc1nc2c(C#N)c(C)nn2c(S)c1Cc1ccccc1 [OO]	> 40	
Cc1ccc(-c2cnn3c(S)c4c(nc23)CN(C)CC4)cc1 [Compound S3]	> 40	
Cc1nc2c(-c3ccccc3)cnn2c(S)c1Cc1ccccc1 [Compound CC, 6-benzyl-5-methyl-3-phenyl-pyrazolo[1,5-a]pyrimidin-7-thiol]	> 40	
Cc1nc2c(-c3cccnc3)c(C)nn2c(O)c1Cc1ccccc1 [Compound L3]	> 40	
Cc1nn2c(S)c(CCc3ccccc3)cnc2c1-c1ccccc1 [Compound E3]	29	
Cc1nn2c(S)cc(C(C)C)nc2c1-c1ccccc1 [H]	> 40	
Cc1cc(S)n2nc(C)c(-c3ccc(Cl)cc3)c2n1 [N]	> 40	
Cc1cc(C)c2c(n1)nn1c(S)c(Cc3ccccc3)c(C)nc21 [RR]	> 40	
Cc1cc(C)c2c(n1)nn1c(S)cc(C)nc21 [Compound E]	10.1	
Sc1c(Cc2ccccc2)cnc2c(-c3ccccc3)cnn12 [Compound Z, 6-benzyl-3-phenyl-pyrazolo[1,5-a]pyrimidin-7-thiol]	> 40	
Cc1cc2nc(C)c(Cc3ccc(Cl)cc3)c(O)n2n1 [Compound P, 6-[(4-chlorophenyl)methyl]-2,5-dimethyl-pyrazolo[1,5-a]pyrimidin-7-ol]	20.1	
Cc1cc(S)n2ncc(-c3cccc(N(C)C)c3)c2n1 [UU]	> 40	
Oc1c(Cc2ccccc2)cnc2c(-c3ccccc3)cnn12 [Compound W, 6-benzyl-3-phenyl-pyrazolo[1,5-a]pyrimidin-7-ol]	> 40	
COc1ccccc1-c1c(C)nn2c(S)cc(C)nc12 [Compound D]	11.7	
Cc1nn2c(S)c(CC(C)C)cnc2c1-c1ccccc1 [Compound G3]	> 40	
Cc1cc(S)n2ncc(-c3ccc(F)cc3)c2n1 [Compound L, 3-(4-fluorophenyl)-5-methylpyrazolo[1,5-a]pyrimidine-7-thiol]	27.1	increases
Cc1nc2c(-c3ccncc3)c(C)nn2c(S)c1Cc1ccccc1 [MM]	> 40	

SMILES	EC50 [µM]	Parkin activity in an auto-ubiquitination assay
Cc1nc2c(C(F)(F)F)c(C)nn2c(S)c1Cc1ccccc1 [LL]	16.5	
Cc1cc(S)n2ncc(-c3cnn(C)c3)c2n1 [VV]	> 40	
Cc1nc2c(-c3ccccn3)c(C)nn2c(O)c1Cc1ccccc1 [FF]	> 40	
Cc1nc2c(-c3ccccc3)c(C)nn2c(S)c1Cc1ccccc1 [Compound A, 6-benzyl-2,5-dimethyl-3-phenylpyrazolo[1,5-a]pyrimidine-7-thiol]		increases
Cc1nc2c(C3CCN(C)CC3)c(C)nn2c(O)c1Cc1ccccc1 [Compound O3]	> 40	
Cc1ccc(-c2cnn3c(O)cc(C)nc23)cc1 [Compound H3]	> 40	
Cc1nn2c(O)c3c(nc2c1-c1ccccc1)CCN(C)C3 [Compound K3]	> 40	
Cc1nc2c(-c3ccccc3)c(C)nn2c(S)c1Cc1ccccn1 [Compound BB, 2,5-dimethyl-3-phenyl-6-(2-pyridylmethyl)pyrazolo[1,5-a]pyrimidine-7-thiol]	8.8	
Cc1cc(S)n2ncc(-c3ccccc3)c2n1 [Compound C]	> 40	
Cc1nn2c(S)c(C)c(Cc3ccccc3)nc2c1-c1ccccc1 [ZZ]	> 40	
Cc1cc(O)n2ncc(-c3cccc(N(C)C)c3)c2n1 [Compound M3]	> 40	
Cc1nn2c(S)c3c(nc2c1-c1ccccc1)COC3 [XX]	> 40	
Cc1nc2c(-c3ccccc3)c(C)nn2c(O)c1Cc1ccccc1 [T]	> 40	
Cc1cc2nc(C)c(Cc3ccccc3)c(O)n2n1 [Q]	> 40	
Cc1nn2c(S)c3c(nc2c1-c1ccccc1)CCCC3 [Compound K]	> 40	
CCc1nn2c(S)cc(C)nc2c1-c1ccc(F)cc1 [Compound I]	6.4	
COc1ccc(-c2cnn3c(S)cc(C)nc23)cc1 [SS]	> 40	
Cc1nc2c(-c3ccccc3)cnn2c(O)c1Cc1ccccc1 [Compound U, 6-benzyl-5-methyl-3-phenyl-pyrazolo[1,5-a]pyrimidin-7-ol]	14.7	
Cc1nn2c(O)c(Cc3ccccc3)cnc2c1-c1ccccc1 [Compound V, 6-benzyl-2-methyl-3-phenyl-pyrazolo[1,5-a]pyrimidin-7-ol]	> 40	
Cc1nn2c(S)c3c(nc2c1-c1ccccc1)CCOC3 [WW]	> 40	

SMILES	EC50 [µM]	Parkin activity in an auto-ubiquitination assay
Cc1nc2c(-c3ccccc3)c(C)nn2c(O)c1Cc1ccccn1 [Compound Y, 2,5-dimethyl-3-phenyl-6-(2-pyridylmethyl)pyrazolo[1,5-a]pyrimidin-7-ol]	> 40	
Cc1nc2c(C3CCN(C)CC3)c(C)nn2c(S)c1Cc1ccccc1 [Compound N3]	> 40	
Cc1cc(C)c2c(n1)nn1c(O)c(Cc3ccccc3)c(C)nc21 [NN]	> 40	
Cc1nn2c(S)c3c(nc2c1-c1ccccc1)CN(C)CC3 [Compound C3]	> 40	
Cc1cc(S)n2ncc(-c3cc[nH]c(=O)c3)c2n1 [Compound A3]	> 40	
Cc1cc(O)n2nc(C)c(-c3ccc(Cl)cc3)c2n1 [M]	> 40	
Cc1nc2c(C#N)c(C)nn2c(O)c1Cc1ccccc1 [Compound GG, 6-benzyl-7-hydroxy-2,5-dimethyl-pyrazolo-[1,5-a]pyrimidine-3-carbonitrile]	> 40	
Cc1nc2c(C(F)(F)F)c(C)nn2c(O)c1Cc1ccccc1 [JJ]	> 40	
Cc1cc(S)c2ncc(-c3ccc(F)cc3)n2n1 [Compound F3]	32	
Cc1nn2c(S)c(Cc3ccccc3)cnc2c1-c1ccccc1 [Compound DD, 6-benzyl-2-methyl-3-phenyl-pyrazolo[1,5-a]pyrimidin-7-thiol]	> 40	
CCCc1cc(S)n2nc(C)c(-c3ccccc3)c2n1 [Compound B]	> 40	
Cc1nc2c(C(=O)N(C)C)c(C)nn2c(S)c1Cc1ccccc1 [II]	> 40	
CC(C)(C)c1cc(O)n2ncc(-c3ccc(Cl)cc3)c2n1 [Compound G]	> 40	
Cc1nc2c(-c3ccccc3)c(C)nn2cc1Cc1ccccc1 [QQ]	> 40	
Cc1cc2nc(C)c(Cc3ccc(Cl)cc3)c(S)n2n1 [Compound R, 6-[(4-chlorophenyl)methyl]-2,5-dimethyl-pyrazolo[1,5-a]pyrimidine-7-thiol]	> 40	
CNc1c2c(nc3c(-c4ccccc4)c(C)nn13)CCN(C)C2 [YY]	> 40	
Cc1ccc(-c2cnn3c(O)c4c(nc23)CN(C)CC4)cc1 [Compound P3]	> 40	
Cc1cc2nc(C)c(Cc3ccccc3)c(S)n2n1 [S]	> 40	
Cc1nc2c(-c3cccnc3)c(C)nn2c(S)c1Cc1ccccc1 [Compound D3]	21	
